Test results: the supplement of paper PMC10307832

Key:
Assay in all cases: relative viability (nuclei count vs DMSO), 5 days (fraction); higher = more cells survive
Tosedostat + Navitoclax = compound: CC(C)C[C@@H](C(=O)N[C@H](C(=O)OC1CCCC1)c1ccccc1)[C@H](O)C(=O)NO [Tosedostat] + CC1(C)CCC(c2ccc(Cl)cc2)=C(CN2CCN(c3ccc(C(=O)NS(=O)(=O)c4ccc(N[C@H](CCN5CCOCC5)CSc5ccccc5)c(S(=O)(=O)C(F)(F)F)c4)cc3)CC2)C1 [Navitoclax] (partner 0.5 µM)
Method in brief: (§1)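 For relative viability, nuclei counts in treated wells were divided by those in vehicle wells. Lung cancer cell lines had been pin-tool dosed in 1536-well plates the day after seeding and cultured for 5 days, then fixed and stained in one step (final 0.05% Triton X-100, 1% formaldehyde, 1 ug/ml Hoechst) and imaged at 4×. Doses were one drug alone or a fixed anchor-drug dose plus five library-drug doses (not always all listed) in √10 steps, and values are duplicate-plate medians.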

Tosedostat + Tozasertib = compound: CC(C)C[C@@H](C(=O)N[C@H](C(=O)OC1CCCC1)c1ccccc1)[C@H](O)C(=O)NO [Tosedostat] + Cc1cc(Nc2cc(N3CCN(C)CC3)nc(Sc3ccc(NC(=O)C4CC4)cc3)n2)n[nH]1 [Tozasertib] (partner 0.1 µM)
Method in brief: as §1

Tosedostat + Foretinib = compound: CC(C)C[C@@H](C(=O)N[C@H](C(=O)OC1CCCC1)c1ccccc1)[C@H](O)C(=O)NO [Tosedostat] + COc1cc2c(Oc3ccc(NC(=O)C4(C(=O)Nc5ccc(F)cc5)CC4)cc3F)ccnc2cc1OCCCN1CCOCC1 [Foretinib] (partner 0.25 µM)
Method in brief: as §1

Tosedostat + Trametinib = compound: CC(C)C[C@@H](C(=O)N[C@H](C(=O)OC1CCCC1)c1ccccc1)[C@H](O)C(=O)NO [Tosedostat] + CC(=O)Nc1cccc(-n2c(=O)n(C3CC3)c(=O)c3c(Nc4ccc(I)cc4F)n(C)c(=O)c(C)c32)c1 [Trametinib] (partner 0.02 µM)
Method in brief: as §1

UMC-11
relative viability (Tosedostat + Navitoclax; first compound 0.02 µM): 0.343 | relative viability (Tosedostat + Navitoclax; first compound 0.06325 µM): 0.309 | relative viability (Tosedostat + Navitoclax; first compound 0.2 µM): 0.323 | relative viability (Tosedostat + Navitoclax; first compound 0.6325 µM): 0.322 | relative viability (Tosedostat + Navitoclax; first compound 2 µM): 0.287 | relative viability (Tosedostat + Tozasertib; first compound 0.02 µM): 0.214 | relative viability (Tosedostat + Tozasertib; first compound 0.06325 µM): 0.195 | relative viability (Tosedostat + Tozasertib; first compound 0.2 µM): 0.206 | relative viability (Tosedostat + Tozasertib; first compound 0.6325 µM): 0.197 | relative viability (Tosedostat + Tozasertib; first compound 2 µM): 0.194 | relative viability (Tosedostat + Foretinib; first compound 0.02 µM): 1.22 | relative viability (Tosedostat + Foretinib; first compound 0.06325 µM): 0.969 | relative viability (Tosedostat + Foretinib; first compound 0.2 µM): 1.02 | relative viability (Tosedostat + Foretinib; first compound 0.6325 µM): 1.09 | relative viability (Tosedostat + Foretinib; first compound 2 µM): 1.03 | relative viability (Tosedostat + Trametinib; first compound 0.02 µM): 0.863 | relative viability (Tosedostat + Trametinib; first compound 0.06325 µM): 0.681 | relative viability (Tosedostat + Trametinib; first compound 0.2 µM): 0.663 | relative viability (Tosedostat + Trametinib; first compound 0.6325 µM): 0.855 | relative viability (Tosedostat + Trametinib; first compound 2 µM): 0.664
